The values that follow come from patent US11365185B2, “Lysophosphatidic acid receptor 1 (LPAR1) inhibitor compounds” (Eli Lilly and Company, priority 2017, dated 2022).

Marks after values point to notes of the source that are not given here.

One data set relates to Male C57B1/6 mice. Kind of data set: Diet-Induced Liver Inflammation and Fibrosis. It counts as in vivo. The conditions noted are these: for Peri-sinusoidal Fibrosis Score: vehicle 1.37; for Inflammation Score: vehicle 2.7. As for the experimental part: Diet-Induced Liver Inflammation and Fibrosis
Male C57B1/6 mice (7-8 weeks old) are given free access to food and water. Mice are fed with high fat, high sucrose and high cholesterol food for 196 days. Then animals will be administrated orally with vehicle or test compounds once daily for 77 days at a volume of 5 ml/kg. Body weight and food intake will be measured twice a week, after two weeks, BW and FI will be measured once a week. At the end of study, animals will be euthanized by CO2 suffocation. Liver samples of the animals are collected and fixed in 10% NBF. Liver samples are prepared after 20 to 24 hours of fixation in 10% NBF and prepared into FFPE blocks. Slide sections of FFPE blocks are processed with H&E and Masson's Trichrome staining. Histopathology interpretation and results will be provided by qualified pathologists. The data are plotted using Graphpad prism and statistical differences between groups determined.

A further data set relates to Male C57BL/6J mice. Kind of data set: Mouse Intravenous LPA-Induced Histamine and Eicosanoids Release. The settings on record: 10 mg/kg orally 2 hours before intravenous LPA; plasma. It counts as in vivo. The protocol:
Mouse Intravenous LPA-Induced Histamine and Eicosanoids Release
A mouse intravenous LPA-induced histamine and eicosanoids release model is utilized to determine the in vivo potency of the compounds of the present invention. Male C57BL/6J mice weighing 20-25 grams are given free access to standard mouse chow and water. LPA is dissolved in 0.1% fatty acid-free bovine serum albumin to generate solution at 2 mg/mL. Test compounds are formulated in 0.5% methyl cellulose plus 0.25% Tween 80 to generate required concentrations one day before the experiment and stored in a refrigerator until use. Animals are dosed orally with test compounds at 10 ml/kg 2 hours before the intravenous LPA dosing (300 ug per mouse) with 30 gauge needles through tail vain. Two hours after LPA dosing the animals are euthanized by CO2 suffocate. Blood will be collected by cardiac puncture. Blood samples are kept on ice for more than 5 minutes and centrifuged at 4000 rpm for 10 minutes at 4° C. to generate supernatant plasma. The plasma histamine, methylimidazol acetic acid and eicosanoids levels are measured by LC/MS.

Data set [1] deals with T1, LPAR1 (Homo sapiens (Human), UniProt Q92633). Kind of data set: LPAR1 Membrane Binding Assay. The settings on record: membrane containing LPAR1, radio labeled ligand, SPA. The protocol:
LPAR1 Membrane Binding Assay
The ability of a compound to inhibit binding of a ligand (1-(4′-(4-(((benzyloxy)carbonyl)amino)-3-methylisoxazol-5-yl)-[1,1′-biphenyl]-4-yl)cyclopropane-1-carboxylic acid) to LPAR1 is assessed via a membrane binding assay. Membrane containing LPAR1 was purchased from Cerep (Cat. No. 290312RB). Prior to the assay, membrane is thawed and homogenized for 15 seconds. 50 μl of test compounds and 50 μl of radio labeled ligand are added to the 96-well plates and then 50 of μl membrane (50-400 ug/ml) are added. Next, 50 μl of SPA PVT WGA beads are added (1-5 mg/ml) and the plates are sealed and incubated at room temperate for 5 minutes. Radio activity is measured by Beta Counter and IC50 values are determined using “Genedata Screener” analysis tool.
Target sequence in this assay (Q92633 whole entry, species assumed): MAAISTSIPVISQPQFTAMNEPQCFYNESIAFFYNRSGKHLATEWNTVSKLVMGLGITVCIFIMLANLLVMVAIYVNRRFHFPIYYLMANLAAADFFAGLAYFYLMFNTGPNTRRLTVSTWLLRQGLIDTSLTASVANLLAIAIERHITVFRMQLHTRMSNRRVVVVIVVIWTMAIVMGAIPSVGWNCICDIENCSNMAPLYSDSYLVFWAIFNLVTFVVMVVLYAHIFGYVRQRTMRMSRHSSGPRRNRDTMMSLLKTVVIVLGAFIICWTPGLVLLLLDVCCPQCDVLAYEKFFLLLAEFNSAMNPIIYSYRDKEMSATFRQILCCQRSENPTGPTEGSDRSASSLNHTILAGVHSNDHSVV

Data set [2] is described as follows: Rodent Pharmacokinetics - Rat PK. It counts as in vivo, male Sprague-Dawley rats. The settings on record: male, Sprague-Dawley, plasma; for AUC / bioavailability: 10 mg/kg; for AUC: PO; for clearance / Vd: intravenous, 1 mg/kg; for Vd: read-out: Vdss; for bioavailability: oral. As for the experimental part: (§1) The pharmacokinetics of compounds are determined in male Sprague-Dawley rats or C57 mice. The rats are administered a single 1 mg/kg intravenous (IV) and 10 mg/kg oral gavage (PO) dose. The vehicles are 20% Captisol w/v in 25 mM NaPO4 buffer, pH8 and 1% hydroxyethylcellulose/0.25% polysorbate 80 and 0.05% antifoam 1510-US in distilled water for the intravenous and oral dose, respectively. Blood samples are collected at predose (PO only), 0.08 (IV only), 0.25, 0.5, 1, 2, 4, 8, 12 and 24 h after initiation of compound administration. Blood samples are centrifuged to obtain plasma. The plasma samples are analyzed by LC-MS/MS to determine compound concentrations.

Data set [3] has as its target T1, LPAR1. Description: LPAR1 Calcium Flux Assay. The conditions noted are these: U937 cells overexpressing human LPAR1, LPA-stimulated calcium, FLIPR. The data set is classed as cell-based. As for the experimental part: LPAR1 Calcium Flux Assays
A cDNA encoding the human LPAR1 receptor is synthesized and cloned into pDNA3 expression plasmid. The plasmid is transfected in U937 cells using Lipofectamine 2000 (Invitrogen Corp., USA). Clones stably expressing human LPAR1 are selected using puromycin and identified as cells that show Ca-influx in response to LPA.
U937 cells overexpressing human LPAR1 are seeded at 100,000 cells per well in a 96-well fibronectin (10 ug/ml) coated plate in 60 μl of assay buffer (HBSS containing 20 mM HEPES and 0.2% BSA) and then incubated for 60 minutes. Then 50 μl of a calcium indicator dye (Fluo-4 NW, Molecular Probes) are added to each well and incubation continued for 30 minutes at 37° C. and then 30 minutes at room temperature. 50 μl of test compounds in 4% DMSO are added to the cells and incubation continued at room temperature for 40 minutes. Cells are the stimulated by the addition of 50 μl of 128 nM LPA and intracellular calcium is measured using the FLIPR TETRA (Molecular Devices). IC50 values are determined using “Genedata Screener” analysis tool.
Target sequence in this assay (Q92633 whole entry): as the sequence (Q92633 whole entry, species assumed) above
Background: A change in cytosolic calcium serves as a functional read-out for many receptors and channels.

The target in the next data set is human LPAR3 (Homo sapiens (Human), UniProt Q9UBY5). Kind of data set: LPAR3 Calcium Flux Assay. The settings on record: U2OS cells overexpressing human LPAR3, LPA-stimulated calcium, FLIPR. It counts as cell-based. The protocol:
LPAR3 Calcium Flux Assays
A cDNA encoding the human LPAR3 receptor is synthesized and cloned into pDNA3 expression plasmid. The plasmid is transfected in U2OS cells using Lipofectamine 2000 (Invitrogen Corp., USA). Clones stably expressing human LPAR3 are selected using neomycin and identified as cells that show Ca-influx in response to LPA.
U2OS cells overexpressing human LPAR3 are seeded at 20,000-40,000 cells per well in a 96-well poly-D-lysine coated plate one day before the assay. Prior to the assay, the cells are washed once with assay buffer (HBSS containing 20 mM HEPES and 0.2% BSA) and then incubated in 50 μl of assay buffer for 60 minutes. Then 50 μl of a calcium indicator dye (Fluo-4 NW, Molecular Probes) are added to each well and incubation is continued for 30 minutes at 37° C. and then 30 minutes at room temperature. 50 μl of test compounds in 4% DMSO are added to the cells and incubation continued at room temperature for 40 minutes. Cells are stimulated by the addition of 50 μl of 128 nM LPA and intracellular calcium is measured using the FLIPR TETRA (Molecular Devices). IC50 values are determined using “Genedata Screener” analysis tool.

Data set [4] is described as follows: Rodent Pharmacokinetics - Mouse PK. The settings on record: C57, plasma. It counts as in vivo, C57 mice. As for the experimental part: as §1
Data set [5] relates to Human hepatic stellate cell line LX-2. Kind of data set: Calcium Influx of Human Hepatic Stellate Cells (LX-2). The settings on record: LX-2 cells, LPA-stimulated calcium influx. It counts as cell-based. The protocol: Calcium Influx of Human Hepatic Stellate Cells (LX-2)
Human hepatic stellate cell line LX-2 is purchased from EMD Millpore. LX-2 cells are seeded at 20,000-40,000 cells per well in a 96-well poly-D-lysine coated plate one day before the assay. Prior to the assay, the cells are washed once with assay buffer (HBSS containing 20 mM HEPES and 0.2% BSA) and then incubated in 50 μl of assay buffer for 60 minutes. Then 50 μl of a calcium indicator dye (Fluo-4 NW, Molecular Probes) are added to each well and incubation is continued for 30 minutes at 37° C. and then 30 minutes at room temperature. 50 μl of test compounds in 4% DMSO are added to the cells and incubation is continued at room temperature for 40 minutes. Cells are stimulated by the addition of 50 μl of 128 nM LPA and intracellular calcium is measured using the FLIPR TETRA (Molecular Devices). IC50 values are determined using “Genedata Screener” analysis tool.

Data set [6] addresses T1, LPAR1. Description: LPAR1 Cytokine Release Assay (IL-6, MG63 cells). It counts as cell-based. The conditions noted are these: LPA-stimulated IL-6 levels, 24 hours, ELISA. As for the experimental part: LPAR1 Cytokine Release Assay
Human MG63 cells are seeded at 20,000 per well in 96-well plates and incubated in MEM medium. One day later, the cell culture medium is removed and 60 μl of test compounds are added to each well. 30 minutes later, 60 μl of LPA (10 μM) are added to each well. 24 hours later, 50 μl of supernatant from each well are taken and IL-6 levels are measure by using ELISA kit (R&D Systems, Cat. No. D6050). IC50 values are determined using “Genedata Screener” analysis tool.
Target sequence in this assay (Q92633 whole entry): as the sequence (Q92633 whole entry, species assumed) above

The mark [7] stands for this setting: 10 mg/kg orally once daily for 77 days.
The mark [8] stands for this setting: 30 mg/kg orally once daily for 77 days.

human LPAR3, sequence (Q9UBY5 whole entry): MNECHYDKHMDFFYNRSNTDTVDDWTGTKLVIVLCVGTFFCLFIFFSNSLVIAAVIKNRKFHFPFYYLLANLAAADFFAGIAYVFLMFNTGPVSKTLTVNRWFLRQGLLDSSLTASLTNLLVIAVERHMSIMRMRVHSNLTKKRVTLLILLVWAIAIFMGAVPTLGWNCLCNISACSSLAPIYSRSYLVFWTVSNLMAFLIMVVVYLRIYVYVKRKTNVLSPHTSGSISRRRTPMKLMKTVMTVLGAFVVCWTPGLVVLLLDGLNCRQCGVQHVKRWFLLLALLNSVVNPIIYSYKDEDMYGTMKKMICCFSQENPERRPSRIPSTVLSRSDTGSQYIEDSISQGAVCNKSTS

By Ki is commonly meant a measure of affinity in units of concentration, obtained from inhibition or displacement. Low values mean a stronger hold on the target, high ones a looser hold on the target. The AUC is concentration integrated over time. A low value points to low exposure. What is called clearance is the volume of plasma or blood freed of the substance per unit of time. Higher therefore signals a high capacity for elimination. In general, bioavailability refers to dose-corrected exposure relative to a reference, in per cent. A higher bioavailability goes with good availability. What is called IC50 is the concentration that gives 50% inhibition. Regarding `CC(C)c1cncc(Nc2c(-c3ccc(-c4ccc(C5(C(=O)O)CC5)cc4)cn3)cnn2C)n1` [Example 27, 1-[4-[6-[5-[(6-isopropylpyrazin-2-yl)amino]-1-methyl-pyrazol-4-yl]-3-pyridyl]phenyl]cyclopropanecarboxylic Acid], the “Peri-sinusoidal Fibrosis Score” value in the data set on Male C57B1/6 mice (setting [7]) is 1.30; in the data set on Male C57B1/6 mice (setting [8]) it was 1.07^$. Besides, the “Inflammation Score” value with Male C57B1/6 mice (setting [7]) is 2.1*; in the data set on Male C57B1/6 mice (setting [8]), 2.3^#. Besides, the “% of inhibition, histamine” value in the data set with Male C57BL/6J mice worked out at 89.5 ± 1.6%. Moreover, the “% of inhibition, methylimidazoleacetic acid” value in the data set on Male C57BL/6J mice turned out to be 100.8 ± 3.4%. Moreover, the affinity on LPAR1 [1], expressed as Ki, was 15.3 nM. In addition, the AUC was determined as 80.1 µM·h in data set [2] and 38.4 µM·h in [4] (10 mg/kg, PO). Further, the clearance in data set [2] is 4.23 mL/min/kg; in data set [4] (intravenous) it was 3.5 mL/min/kg. Also, the Vd came to 0.799 L/kg in data set [2] and 0.953 L/kg in data set [4] (intravenous, read-out: Vdss). The bioavailability in data set [2] came out at 93.6%; in data set [4] (oral, 10 mg/kg), 40.8%. The IC50 on LPAR1 [3] amounted to 20.6 nM; on human LPAR3 it was 1980 nM; in [5] it was 8.88 nM.

In the case of `CC(C)Oc1cncc(Nc2c(-c3ccc(-c4ccc(C5(C(=O)O)CC5)cc4)cn3)cnn2C)n1.Cl` [Example 20, 1-[4-[6-[5-[(6-isopropoxypyrazin-2-yl)amino]-1-methyl-pyrazol-4-yl]-3-pyridyl]phenyl]cyclopropanecarboxylic Acid; Hydrochloride], in the data set on Male C57BL/6J mice, the “% of inhibition, 9,10-cis epoxide of linoleic acid” value is 83.4 ± 6.4%; the “% of inhibition, 12-hydroxyeicosatetraenoic acid” value turned out to be 68.8 ± 6.0%; the “% of inhibition, methylimidazoleacetic acid” value is listed as 103.5 ± 0.6%. Affinity on LPAR1 [1] was put at a Ki of 12.7 nM. Further, in data set [2], the AUC was 70.9 µM·h, the clearance is 2.94 mL/min/kg, the Vd turned out to be 0.721 L/kg and the bioavailability was determined as 57.5%. Also, at LPAR1 [3], the IC50 was 29.3 nM. On LPAR1 [6], this compound showed an IC50 of 3.95 nM. For the same compound, the IC50 at human LPAR3 is 341 nM. Besides, in data set [5], the IC50 was 12 nM.
